The subject of test [1] is sera obtained from cancer patients. Kind of test: ELISA B cell epitope screening of 15-mer peptides with cancer patient sera. Type of test: binding, human. The settings on record: single 15-mer peptides of SP8 or SP9. The text has this: FIG. 7. Several novel epitopes were detected in BC patients by ELISA in SP8 and SP9, including 94, 108, 91, 88, 89, and 95 from pool 9.
B cell epitopes have been screened by ELISA or flow cytometry using 4D1, 4E6, 4E11, 6H5, 6E11, 5F11mAbs or G11D10 or P 1/P2e (single chain antibodies generated from 6H5 (FIGS. 5-6), or the sera obtained from cancer patients (FIGS. 7-8). Several anti-HERV-K monoclonal antibodies were able to recognize some of these peptides.

For a further test, the system named is IVS cells. Kind of test: IFN-γ ELISPOT with IVS cells (DC pulsed once with HERV-K protein) against MAPs, 9-mer pools or single peptides. The test is classed as cell-based, human. Particulars: donor 449731, IVS cells, FIG. 15C. The text has this:
FIGS. 15A-C. ELISPOT was employed to determine the production of IFN-γ in twelve 15-mer small pools. (FIG. 15A) Numbers of spots detected in multiple pools are shown for a breast cancer patient diagnosed with IDC (Acc 30) or a patient diagnosed with teratoma (Acc 32). (FIG. 15B) Numbers of spots detected in multiple pools are shown for a patient diagnosed with left breast minute foci of sugg papillary lesion (967092) or IDC (Acc 31). SP 1-12 represents small peptide pools #1-12. Pool 0 contains no peptides (as control). (FIG. 15C) T cells obtained from PBMC stimulated once with HERV-K-specific pulsed homologous B cells were reactive with individual MAPs, pools of 9-mer peptides, or single 9-mer peptides. NP: no peptide control.
IVS were obtained from two donor pairs stimulated with DC pulsed once with HERV-K protein. After 7 days (1-week stimulation), IVS cells were used for ELISPOT with 15-mer peptides (FIGS. 15A-B) or MAPs including MAP73, MAP75-76, MAP82-93, MAP 92-93, and MAP95-96 or 9 mer peptide pools (#1 to 5, #5 to 10, #1 to 10, #12 to 17, #18 to 22) or single peptides (#3, #18, and #4.11; FIG. 15C). Candidate epitopes (#4 and #11) were further identified using IVS generated from DC obtained from cancer patients stimulated with HERV-K antigen in this study.

A further test concerns T cells in PBMCs. Kind of test: IFN-γ release by ELISA from PBMC stimulated with peptides or protein. The test is classed as cell-based, human. The settings on record: stimulated PBMC, FIG. 21A. From the text:
FIG. 17. T cell stimulation by HERV-K peptides. Peptides (p73-76 and p18-135) or HERV-K SU fusion proteins were used to stimulate PBMC and evaluated in vitro for their ability to stimulate T cells in PBMCs from healthy subjects (ND1007083; left) and/or cancer patients (BC 243; right), based on interferon-γ(IFN-γ) release by ELISA. KLH peptide and GST protein were used as controls. Other negative controls included media only, DMSO, and PBS.
FIG. 18. T cell stimulation by HERV-K peptides. Peptides (p73-76: left; and p18-135: middle) or HERV-K SU fusion proteins (right) were used to stimulate PBMC and evaluated in vitro for their ability to stimulate T cells in PBMCs from healthy subjects and/or cancer patients (BC 243; middle), based on interferon-γ (IFN-γ) release by ELISA. OD values of interferon-γ (IFN-γ) release were compared between normal donors (ND447549, ND1001366, and ND1007083) and cancer patients (OC222, OC 210, OC212, and BC243). OC is ovarian cancer and BC is breast cancer
FIGS. 21A-C. T Cell Stimulation. 9 mer Peptides (HERVK-3, HERVK-4, HERVK-11, and HERVK-18; see Table 1), p73-76 and p18-135 (Table 1 178 and 179), or HERV-K SU fusion proteins were used to stimulate PBMC and evaluated in vitro for their ability to stimulate T cells in PBMCs from healthy subjects and/or cancer patients, based on IFN-γ and Granzyme B release by ELISA. (FIG. 21A) OD values of IFN-γ release were compared in a normal donor (ND291812). (FIG. 21B) OD values of IFN-γ release were compared between a normal donor (ND291817) and an ovarian cancer patient (OC153). (FIG. 21C) OD values of Granzyme B release were compared between a normal donor (ND291817) and an ovarian cancer patient (OC153). Each dot represents an individual clone. Negative controls measured release of effector molecules from cancer cells after treatment with supernatants obtained from PBMCs without stimulation with HERV-K peptides or protein; positive controls were stimulated with PMA/ONO.
Cancer patients were enrolled to evaluate HERV-K as a tumor associated antigen target. Patients provided written informed consent as part of an approved protocol (LAB04-0083) at MD Anderson Cancer Center prior to commencing the studies. Normal healthy donor control blood samples were obtained from Gulf Coast Regional Blood Center, Houston Tex. 40 mL of peripheral blood was obtained from each patient, and peripheral blood mononuclear cells (PBMCs) were isolated by density gradient centrifugation using Histopaque-1077 (Sigma-Aldrich; USA). HLA-A*02 expression in PBMCs obtained from cancer patients and healthy subjects was determined by flow cytometry with PE Mouse anti-human HLA-A2 mAb BB7.2 (BD Pharmingen; San Diego, Calif., USA). Mouse IgG2b was used as an isotype control. PBMCs (5×10^5 cells/well) from either healthy subjects or cancer patients were incubated with Peptide #18-135 ([…]; SEQ ID NO: 178), Peptide #73-76 ([…]; SEQ ID NO: 179) or KLH as control peptide) or proteins (HERV-K env SU protein or GST protein as control) at concentrations of 40 μg/mL in 96-well U-bottom microplates (BD; Franklin Lakes, N.J., USA) in 100 μL of T-cell medium (TCM), consisting of RPMI 1640 (Mediatech; Manassas, Va., USA), 10% human AB serum (Valley Biomedical, Winchester, USA), […] 2-mercaptoethanol, 100 IU/mL interleukin-2 (IL-2), and 0.1 mM MEM nonessential amino acid solution (Invitrogen; Grand Island, N.Y., USA). Half of the TCM was removed and replaced with fresh TCM containing peptides (20 μg/mL) on day 7. After 14 days of culture, the supernatants from cell culture media (PBMC pulsed with peptides or proteins) were harvested and tested for their ability to produce IFN-gamma or IL-2, and granzyme B release was also determined by enzyme-linked immunosorbent assay (ELISA) assay. In order to detect the secreted cytokine in this assay, high-binding plates were coated with 5 μg/ml anti-IFN-γ (Mabtech, Stockholm, Sweden) diluted in PBS buffer at 4° C. overnight. […]
A general note: An ELISA detects its analyte on a solid surface through an enzyme-linked reagent.

In test [2] the test system is TIL obtained from melanoma patient. Kind of test: IFN-γ ELISPOT with TIL from melanoma patient. The test is classed as cell-based, human.
Test [3] concerns T cells from HLA A2+ normal donor. Briefly: IFN-γ ELISPOT, T cells stimulated by 9-mer peptide pool-pulsed homologous B cells. The test is classed as cell-based, human. The settings on record: T cell stimulated 3 times with peptide pool #12 to 22. From the text:
FIGS. 12A-B. Identification of HLA-A2 T-cell specific peptides using anti-human IFN-γ ELISPOT with T cells from one HLA A2^+ normal donor. (FIG. 12A) T cells, stimulated by peptide pool-pulsed homologous B cells three (3rd T cells) or four (4th T cells) times were reactive with two pools from a HERV-K HLA A2^+9-mer peptide library (pool #1-11 and pool #12-22). NP is no peptide control. (FIG. 12B) Photographs of actual plates for FIG. 12A.
FIGS. 13A-B. Identification of HLA-A2 T cell specific epitopes using anti-human IFN-γ ELISPOT. T cells obtained from PBMC stimulated by peptide pool-pulsed homologous B cells three (3rd T cells) or four (4th T cells) times, were reactive with individual peptides. (FIG. 13A) Image of ELISPOT. (FIG. 13B) The code of peptides evaluated in ELISPOT assays.
FIGS. 14A-C. Summary of number of ELISPOTs from each individual peptide. Numbers of spots detected (pool 1-11, pool 12-22, and pool 23-33) in ELISPOTS with a single peptide are shown. NP contains no peptide (as control). (FIG. 14A) Summary of number of ELISPOTs from each individual peptide including #1, #2, #3, #5, #6, #7, #8, and #9, and peptide pool #1 to #11. (FIG. 14B) Summary of number of ELISPOTs from each individual peptide including #12, #13, #14, #15, #17, #18, #19, #20, #22 and peptide pool #12 to #22. (FIG. 14C) Summary of number of ELISPOTs from each individual peptide including #23, #24, #25, #26, #27, #28, #30, #31, #32, #33, and peptide pool #23 to #33. 4th T cells indicated the T cells had been stimulated with peptide pool 4 times and 3rd T cells indicated the T cells had been stimulated with peptide pool 3 times.
The inventor used epitope mapping to identify responses to HERV-K peptides in breast cancer patients. They chemically synthesized a HERV-K env nine amino acid (9mer) peptide library (33 HLA A2 restricted peptides) and overlapping 15mer peptide library (144 peptides). Preliminary research has identified two pools from the HERV-K env 9mer peptide library that contain potential CD8+ epitopes, using interferon gamma (IFN-γ) enzyme-linked immunosorbent spot (ELISPOT) assay with T cells from one HLA A2^+ normal donor which was stimulated with the 9mer peptide pool-pulsed homologous dendritic cells (DCs).
HLA-2+ patients were identified by flow cytometry using anti-A2 antibody. Activated B cells were cultured from PBMCs stimulated with irradiated 3T3-CD40L-expressing fibroblasts. Normal donor CD8+ T-cell lines were obtained from PBMCs stimulated with autologous activated B cells pulsed with peptide pools (peptides are in 3 pools: #1-11, #12-22, and #23-33); the stimulation was repeated for 3-4 cycles. HERV-K specific T cells generated from normal donor lines were tested for peptide reactivity using IFN-γ ELISPOT assays (FIGS. 12A-B).

Entries after “also recorded” stand apart in the source; their conditions may differ.

Here are results for ten sequences from patent publication US20150250864A1, “ANTI-CANCER VACCINES” (Board of Regents, The University of Texas System, priority 2012, published 2015).

As to AAVAGVALHSSVQSV [15-mer 94], the “B epitope found by ELISA using patient sera” value (shortened to “B epitope found by ELISA”) in test [1] was “epitopes were found”.
On the same count and under the same terms, in the case of AVIMGLIAVTATAAV [15-mer 91] it was “epitopes were found”; in that of GVALHSSVQSVNFVN [15-mer 95], “epitopes were found”.
Regarding ILVCLFCLL [HERVK-11], the “HERV-K specific T cell epitope (IFN-γ ELISPOT)” value in the test with IVS cells is “HERV-K specific T cell epitopes”. Also, the “IFN-γ release (OD values)” value in the test with T cells in PBMCs is “Higher IFN-γ release”.
Turning to KRFIFTLIAVIMGLI [15-mer 89], the “B epitope found by ELISA” value in test [1] is “epitopes were found”.
Regarding LILVCLFCL [HERVK-4], in the test on IVS cells, the “HERV-K specific T cell epitope (IFN-γ ELISPOT)” value is reported as “HERV-K specific T cell epitopes”. For the same sequence, in the test with T cells in PBMCs, the “IFN-γ release (OD values)” value is recorded as “Higher IFN-γ release”.
With LMSLEHRFQLQCDWN [15-mer 108], the “B epitope found by ELISA” value in test [1] is on record as “epitopes were found; also recorded: the only active epitope in each patient's serum”.
The same measure, in the same setting: in the case of LNRSKRFIFTLIAVI [15-mer 88] it was “epitopes were found”.
With SQTITCENCRLLSCI [15-mer 73], the “recognition by TILs (IFN-γ ELISPOT)” value in test [2] (TIL from a melanoma patient) was “the single peptide in SP7 which was recognized by TILs”. Also, in test [2] (TIL from melanoma patient specimens, FIG. 16A), the “number of IFN-γ spots” value is reported as “large number of spots”.
In the case of TLIAVIMGL [HERVK-15], in test [3], the “IFN-γ ELISPOT spots with individual peptide” value is listed as “numerous spots”.
